Reference: PMC9206686, “Expression, characterization, and activity optimization of a novel cellulase from the thermophilic bacteria Cohnella sp. A01” (Scientific Reports, 2022)

Target: T1, CelC307 (Cohnella sp. A01, UniProt A0A6C0R5L1)
T1 construct: Ni-NTA or heat-shock purified; GH5 domain predicted 77-362; primers imply N-terminus MGDLERL, C-terminus HAGAR before tag
T1 sequence (A0A6C0R5L1 1-491): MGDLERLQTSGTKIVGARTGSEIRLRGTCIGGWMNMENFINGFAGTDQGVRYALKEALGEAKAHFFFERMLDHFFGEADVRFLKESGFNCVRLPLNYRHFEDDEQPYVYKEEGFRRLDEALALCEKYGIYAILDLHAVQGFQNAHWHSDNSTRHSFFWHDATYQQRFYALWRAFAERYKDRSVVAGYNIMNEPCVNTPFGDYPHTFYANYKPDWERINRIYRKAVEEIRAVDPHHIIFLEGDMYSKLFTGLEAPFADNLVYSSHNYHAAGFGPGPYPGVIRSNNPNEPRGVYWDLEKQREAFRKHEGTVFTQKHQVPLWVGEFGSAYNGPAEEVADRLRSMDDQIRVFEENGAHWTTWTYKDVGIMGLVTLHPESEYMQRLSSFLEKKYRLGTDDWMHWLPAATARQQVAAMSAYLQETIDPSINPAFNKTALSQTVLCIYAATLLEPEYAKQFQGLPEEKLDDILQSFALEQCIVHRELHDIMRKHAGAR
Test: DNS reducing-sugar assay, Lineweaver-Burk
Assay type: biochemical
Conditions: inhibitor, CMC substrate; […] inhibitor, pH […] °C

Row | SMILES | inhibition mode (mixed-type) | inhibition mode (non-competitive)
1 | OCC1(O)OC[C@@H](O)[C@@H](O)[C@@H]1O (stereo partly drawn) [fructose] | the fructose and lactose exhibited the mixed-type inhibition mode | –
2 | OC[C@H]1O[C@@H](O[C@H]2[C@H](O)[C@@H](O)C(O)O[C@@H]2CO)[C@H](O)[C@@H](O)[C@H]1O (stereo partly drawn) [lactose] | the fructose and lactose exhibited the mixed-type inhibition mode | –
3 | OC[C@H]1O[C@H](O[C@H]2[C@H](O)[C@@H](O)C(O)O[C@@H]2CO)[C@H](O)[C@@H](O)[C@@H]1O (stereo partly drawn) [maltose] | – | the inhibition mode of maltose was non-competitive because the Vmax was reduced
